# From US20230355599A1, “BIOMARKERS FOR CBL, AND COMPOSITIONS AND METHODS FOR THEIR USE” (NURIX THERAPEUTICS, INC., priority 2022, published 2023)
# Experiments:
# [1] = test system: phosphorylated HS1; test: HS1 phosphorylation in stimulated CD8+ T cells of mice after a single oral dose (flow cytometry); format: in vivo
# Procedure: To assess the in vivo effects of Compound 23 on candidate clinical proximal biomarkers of CBL-B inhibition and compare them to anti-tumor efficacy, two experiments were performed in mice. In the first experiment, whole blood was obtained from groups of mice (n=4 per group) administered a single oral dose of either vehicle (0.5% MC/0.2% polysorbate 80 in deionized water) or increasing doses of Compound 23 at 0.3, 1, 3, 10, 30, or 90 mg/kg. The response to Compound 23 on HS1 activation was measured in anti-CD3 and anti-CD28 stimulated CD8^+ T cells using flow cytometry. Compound 23 induced a dose-dependent increase in the proportion of phosphorylated HS1^+CD8^+ in the presence of anti-CD3 and anti-CD28 co-stimulation. The greatest induction of phosphorylated HS1 was observed upon ex vivo stimulation following administration of Compound 23 doses of ≥10 mg/kg. […] Statistical significance was calculated using 2-way ANOVA with Dunnett's multiple comparisons test.
# [2] = test system: phosphorylated HS1; test: Phosphorylated HS1 in circulating CD8+ T cells after oral dosing of cynomolgus monkeys (flow cytometry, ex vivo anti-CD3/CD28 stimulation)
# Procedure: (§1) To assess these proximal biomarkers of Cbl-b inhibition on CD8^+ T cells, pharmacodynamic analysis was performed in conjunction with a pharmacokinetic study conducted at Charles River Laboratories. Circulating blood was obtained from cynomolgus monkeys treated with 0.3, 1, 3 or 10 mg/kg of Compound 23 after a single dose and after 3 doses. The response to Cbl-b inhibition on proximal biomarkers (pHS1, pPLCγ2, and pZAP70) was measured in CD8^+ T cells using flow cytometry. This technique is highly quantitative and can measure multiple phosphorylation markers in different cell populations within the same sample.
# (§2) Compound 23 was formulated in vehicle (0.2% Tween 80 in DI water+1 eq HCL) and aliquoted into individual (not serially diluted) dosing solutions of 0.3, 1, 3 and 10 mg/mL by stirring for 5-10 min, vortexing, and sonicating again as necessary to produce an even suspension that was stirred constantly at 4° C. to achieve and maintain a homogenous suspension. To prepare vehicle, 0.2% Tween 80 in deionized (DI) water, water was measured into a beaker with continuous stirring. Tween 80 was added sequentially, and stirring continued until the solution dissolved; the solution was stored at 2-8° C.
# (§3) For pharmacodynamic analysis, whole blood was obtained from cynomolgus monkeys and used for flow cytometry assays to evaluate phosphorylated biomarkers, pHS1, pPLCγ2, and pZAP70, in circulating CD8^+ T cells.
# (§4) On the day of dosing, blood samples were collected via femoral venipuncture in accordance with test facility standard operating procedures. 1 mL/tube of whole blood was collected pre-dose (time 0) and at 0.5, 1, 2, 4, 6, and 24 hours post-dose and added into 2 types of TruCulture tubes (Myriad) for pharmacodynamic analysis. One tube contained media alone and is denoted as “Null”, and the second tube contained 2 μg/mL anti-CD3 and anti-CD28, which were prepared at Nurix prior to the study using cynomolgus specific anti-CD3 (BD Biosciences; SP34-2) and anti-CD28 (Bio X cell; CD28.2) and denoted as “CD3/CD28”. Tubes were shipped by overnight courier on cold pack the day of collection and analyzed for phosphorylated biomarkers of Cbl-b inhibition by flow cytometry.
# (§5) Following PD collection, upon receipt of TruCulture tubes, each tube was inverted 5-6 times to ensure a mixed suspension of blood. 30 μg of goat anti-mouse IgG (H+L) antibody (Invitrogen) was added to cross-link the stimulation antibodies and induce synchronized cellular stimulation. Cells were stimulated for 60 minutes alongside non-stimulated controls for each time point.
# (§6) All buffers (Phosflow Lyse/Fix Buffer 5×, Phosflow Perm Buffer I; BD Biosciences) were prepared according to the manufacturer's instructions. After 60 minutes of goat anti-mouse IgG (H+L) antibody stimulation, one volume of blood was mixed with 20 volumes of pre-warmed BD Phosflow Lyse/Fix Buffer (1×) by repeated pipetting (8-10 times), then incubated in a 37° C. water bath for 10 min. Cells were washed and centrifuged at 500×g for 5 min (2×) with PBS. Following centrifugation, cell pellets were resuspended in cold BD Phosflow Perm Buffer I (BD) and incubated at 4° C. for 20 min. […]
# [3] = test system: phosphorylated ZAP70; test: Phosphorylated ZAP70 in circulating CD8+ T cells after oral dosing of cynomolgus monkeys (flow cytometry, ex vivo anti-CD3/CD28 stimulation)
# Procedure: as §1, §2, §3, §4, §5, §6
# [4] = test system: phosphorylated PLCγ2; test: Phosphorylated PLCγ2 in circulating CD8+ T cells after oral dosing of cynomolgus monkeys (flow cytometry, ex vivo anti-CD3/CD28 stimulation)
# Procedure: as §1, §2, §3, §4, §5
# All buffers (Phosflow Lyse/Fix Buffer 5×, Phosflow Perm Buffer I; BD Biosciences) were prepared according to the manufacturer's instructions. […]
# [5] = multiple doses of 10 mg/kg, 3 days of daily oral dosing
# [6] = multiple doses of 10 mg/kg, 4 hours post dose
# [7] = single dose oral 10 mg/kg, after 24 hours
# [8] = single dose oral 10 mg/kg, circulating CD8+ T cells, anti-CD3/CD28 stimulated
structure (smiles),measurement,setting,value
C[C@H]1CCCN(Cc2cc3c(c(C(F)(F)F)c2)CN(c2cccc([C@]4(c5nncn5C)C[C@@H](C)C4)c2)C3=O)C1 [Compound 23],proximal biomarker pHS1 that correlates with the efficacious range,"[1]; pHS1+CD8+ T cells, mouse syngeneic tumor models, therapeutic range",approximately 50%
same,"minimum biological effect level observed in mice (EC50), phosphorylated HS1+ CD8+","[1]; single oral dose 0.3-90 mg/kg, anti-CD3 and anti-CD28 stimulated CD8+ T cells",12 mg/kg
same,doses giving the greatest induction of phosphorylated HS1,"[1]; single oral dose, ex vivo stimulation",≥ 10 mg/kg
same,phosphorylated HS1 in comparison to baseline,[2]; [5],significant increases
same,time of peak increase of phosphorylated HS1,[2]; [6],76 h
same,"time of maximal signal, phosphorylated HS1",[2]; single dose oral 10 mg/kg,2 hours post dose
same,phosphorylated HS1 sustained after 24 hours,[2]; [7],significant increase
same,phosphorylated HS1 in comparison to baseline,[2]; [8],significant increases
same,phosphorylated ZAP70 in comparison to baseline,[3]; [5],significant increases
same,time of peak increase of phosphorylated ZAP70,[3]; [6],76 h
same,"time of maximal signal, phosphorylated ZAP70",[3]; single dose oral 10 mg/kg,2 hours post dose
same,phosphorylated ZAP70 sustained after 24 hours,[3]; [7],significant increase
same,phosphorylated ZAP70 in comparison to baseline,[3]; [8],significant increases
same,phosphorylated PLCγ2 in comparison to baseline,[4]; [5],significant increases
same,time of peak increase of phosphorylated PLCγ2,[4]; [6],76 h
same,"time of maximal signal, phosphorylated PLCγ2",[4]; single dose oral 10 mg/kg,2 hours post dose
same,phosphorylated PLCγ2 in comparison to baseline,[4]; [8],significant increases
